# Assay results from article PMC10989073, “Antineoplastic effect of compounds C14 and P8 on TNBC and radioresistant TNBC cells by stabilizing the K-Ras4B^G13D/PDE6δ complex” (Frontiers in Oncology, 2024).
# Assays:
# Type in all cases: cell-based, human
# MCF-10A cells [1] = assay: Apoptosis/necrosis assay (Annexin V–propidium iodide, flow cytometry); details: 24 h, cisplatin 100 µM, doxorubicin 0.5 µM
# Description: Apoptosis and necrosis were determined using the Apoptosis/Necrosis Detection kit (Abcam, Cambridge, UK) according to the manufacturer’s instructions. In brief, approximately 500,000 cells were seeded in 6-well plates (Corning) for 24 h. […] Cells were harvested and collected by centrifugation. All the samples were analyzed in triplicate using flow cytometry equipment FACSCalibur instrument (BD Biosciences, San Jose, CA, USA) at […] and 575-nm emission. Data analysis was performed using the FlowJo software (Tree Star Inc., Ashland, OR, USA). All experiments were performed in triplicate.
# MDA-MB-231 cells [2] = assay: as above; details: MDA-MB-231, 24 h; C14 and P8 at IC50-24, cisplatin 100 µM, doxorubicin 0.5 µM
# Description: (§1) To determine if the C14 and P8 compounds were able to evoke cell death by apoptosis or necrosis, cell lines MCF-10A, MDA-MB-231, and MDA-MB-231RR were treated at IC50-24 for 24 h. Apoptosis and necrosis were determined using the Apoptosis/Necrosis Detection kit (Abcam, Cambridge, UK) according to the manufacturer’s instructions. In brief, approximately 500,000 cells were seeded in 6-well plates (Corning) for 24 h. Then, each cell line was treated with the respective IC50-24 concentrations of C14 and P8. […] Cells were harvested and collected by centrifugation. All the samples were analyzed in triplicate using flow cytometry equipment FACSCalibur instrument (BD Biosciences, San Jose, CA, USA) at […] and 575-nm emission. Data analysis was performed using the FlowJo software (Tree Star Inc., Ashland, OR, USA). All experiments were performed in triplicate.
# MDA-MB-231RR cells [3] = assay: as above; details: 24 h, C14 and P8 at IC50-24, cisplatin 100 µM, doxorubicin 0.5 µM
# Description: as §1
# MDA-MB-231 cells [4] = assay: Cell cycle analysis (propidium iodide, flow cytometry); details: MDA-MB-231, 3 h at IC50-48H; control 10.0%
# Description: After 3-h incubation, cells were harvested, washed twice in ice-cold PBS, and fixed overnight in 70% ethanol at 4°C. Then, cells were washed in PBS, collected by centrifugation, and stained with staining buffer (PBS with 50 µg/ml propidium iodide and 100 µg/ml RNase A).
# MDA-MB-231 cells [5] = assay: Clonogenic assay; details: MDA-MB-231, 10 to 12 days; C14 and P8 at IC50-48, cisplatin 100 µM, doxorubicin 0.5 µM
# Description: (§2) The principal aim of a clonogenic assay is to evaluate the effect of chemotherapy agents or new drugs by the measurement of their ability to arrest tumor cell division and their ability to develop new colonies after their exposure to these new drugs ([56]). Therefore, the colony formation ability of the cell lines MCF-10A, MDA-MB-231, and MDA-MB-231RR was evaluated after their exposure to the C14 and P8 compounds. In brief, breast cancer cell lines were cultured in 6-well plates (Corning), seeding 300 cells per well, and incubated at 37°C in 5% CO2 for 24 h. Compounds C14 and P8 were added at the maximum evaluated concentration IC50-48. As controls, cells without treatment and cells treated in the presence of a vehicle (DMSO at 0.66%) were employed (Sigma-Aldrich). […] After 10 days of treatment, cells were fixed with 4% PFA and stained with 0.1% crystal violet in citric acid (Sigma-Aldrich) for 15 minutes. Subsequently, the dye present in the cells was extracted using isopropanol and read at 570 nm in a Synergy-HTX microplate reader (BioTek). Each test was performed in triplicate. Data were expressed as % colonies relative to the untreated control ([56]).
# MDA-MB-231RR cells [6] = assay: Clonogenic assay; details: 10 to 12 days, C14 and P8 at IC50-48, cisplatin 100 µM, doxorubicin 0.5 µM
# Description: as §2
# MCF-10A cells [7] = assay: Clonogenic assay; details: 10 to 12 days, C14 and P8 at IC50-48, cisplatin 100 µM, doxorubicin 0.5 µM
# Description: as §2
# Ras-GTP in MCF-10A cells = assay: Ras activation pull-down assay (Raf-RBD); details: 3 h pre-treatment (C14, P8 at IC50-48H), EGF 100 ng/ml 10 min
# Description: Subsequently, the cells were stimulated with epidermal growth factor (EGF) (100 ng/ml) for 10 minutes. Lysates (1 mg/ml) were exposed to Ras GTP-binding protein (Raf-RBD), following the manufacturer’s instructions. Experiments for each cell type and condition were repeated three times.
# [8] = tested on: cyclin D1 and GSK3β in MDA-MB-231RR cells; assay: Western blotting of cyclin D1 and GSK3β; details: 3 h, C14 and P8 at IC50-24 (Figure 7 legend), cisplatin 100 µM, doxorubicin 0.5 µM
# Description: (§3) To determine the effect of the C14 and P8 compounds over the protein effectors of K-Ras4B, AKT, and ERK, immunoblotting assays were conducted with specific antibodies. In brief, MCF-10A, MDA-MB-231, and MDA-MB-231RR cells were plated in 100-mm culture dishes until 80% of confluents. Cell adhesion was allowed for 24 h. […] After pre-treatment, cells were stimulated with 100 ng/ml EGF for 10 minutes to promote AKT and ERK activation. Later, the whole-cell extracts were obtained by the lysis of the cells (Cytoskeleton) in the presence of proteases and phosphatase inhibitors. Subsequently, the protein extracts were incubated at 4°C for 40 minutes to be clarified by centrifugation for 10 minutes at 14,000 rpm, at 4°C. The protein concentration of each extract was determined by using the Precision Red Advanced Protein Assay Reagent (Cytoskeleton) Then, approximately 25 μg of protein extract was electrophoresed in 10% sodium dodecyl sulfate–polyacrylamide gel electrophoresis (SDS-PAGE) and transferred to polyvinylidene fluoride (PVDF) membranes (Millipore, Billerica, MA, USA). Blots were probed using the following primary antibodies: Total ERK (Cell Signaling, Danvers, MA, USA), pERK (Cell Signaling), Total AKT (Cell Signaling), pAKT (Cell Signaling), GSK3β (Cell Signaling), and cyclin D1 (Abcam) at a 1:1,000 dilution. As a control, an anti-GAPDH antibody (GeneTex, Irvine, CA, USA) was employed at a 1:100,000 dilution and γ-Tubulin (Invitrogen) 1:5,000. Densitometric analysis of blots was performed using the software ImageJ version 1.45 (National Institutes of Health, Bethesda, […], USA).
# [9] = tested on: cyclin D1 and GSK3β in MDA-MB-231 cells; assay: Western blotting of cyclin D1 and GSK3β; details: MDA-MB-231, 3 h; C14 and P8 at IC50-24 (Figure 7 legend), cisplatin 100 µM, doxorubicin 0.5 µM
# Description: as §3
structure (smiles),measurement,setting,value
"COc1cccc2c1C(=O)c1c(O)c3c(c(O)c1C2=O)C[C@@](O)(C(=O)CO)C[C@@H]3O[C@H]1C[C@H](N)[C@H](O)[C@H](C)O1 [Doxorubicin, doxorubicin, reference compound]",apoptosis cells,MCF-10A cells [1],up to 11.54%
same,apoptosis cells,MDA-MB-231 cells [2],4.65%
same,necrosis,MDA-MB-231 cells [2],9.20%
same,apoptosis cells,MDA-MB-231RR cells [3],0.61%
same,necrosis,MDA-MB-231RR cells [3],1.28%
same,percentage of cells in G2/M,MDA-MB-231 cells [4],increased
same,reduction in colony formation,MDA-MB-231 cells [5],significant reduction
same,reduction in colony formation,MDA-MB-231RR cells [6],90%
same,reduction of colony growth,MCF-10A cells [7],up to 90%
same,reduction in Ras-GTP,Ras-GTP in MCF-10A cells,40%
same,reduction in cyclin D1,[8],20%
same,reduction in cyclin D1 expression,[9],no significant effect
